Pest or weed control data for 23 compounds are collected here from patent US20180186742A1, “PICOLINAMIDES AS FUNGICIDES” (Dow AgroSciences LLC, priority 2017, published 2018).

Experiment [1] relates to Zymoseptoria tritici. Nature of the experiment: Leaf blotch of wheat (SEPTTR), disease control on wheat seedlings. The experiment is classed as in vivo. Particulars: for pest or weed control at 100 ppm: high volume application at 100 ppm; for pest or weed control at 121.5 g/ha: low volume application at 121.5 g/H. As for the experimental part: Technical grades of materials were dissolved in acetone, which were then mixed with nine volumes of water containing 110 ppm Triton X-100. The fungicide solutions were applied onto wheat seedlings using an automated booth sprayer to run-off. All sprayed plants were allowed to air dry prior to further handling. All fungicides were evaluated using the aforementioned method for their activity vs. all target diseases, unless stated otherwise. Wheat leaf blotch and brown rust activity were also evaluated using track spray applications, in which case the fungicides were formulated as EC formulations, containing 0.1% Trycol 5941 in the spray solutions. Wheat plants (variety Yuma) were grown from seed in a greenhouse in 50% mineral soil/50% soil-less Metro mix until the first leaf was fully emerged, with 7-10 seedlings per pot. These plants were inoculated with an aqueous spore suspension of Zymoseptoria tritici either prior to or after fungicide treatments. After inoculation the plants were kept in 100% relative humidity (one day in a dark dew chamber followed by two to three days in a lighted dew chamber at 20° C.) to permit spores to germinate and infect the leaf. The plants were then transferred to a greenhouse set at 20° C. for disease to develop. When disease symptoms were fully expressed on the 1st leaves of untreated plants, infection levels were assessed on a scale of 0 to 100 percent disease severity. Percent disease control was calculated using the ratio of disease severity on treated plants relative to untreated plants.

Experiment [2] deals with Puccinia triticina. As to the kind of experiment: Wheat brown rust (PUCCRT), disease control on wheat seedlings. It is filed as in vivo. Particulars: for pest or weed control at 100 ppm: high volume application at 100 ppm; for pest or weed control at 121.5 g/ha: low volume application at 121.5 g/H. Here is the method:
Technical grades of materials were dissolved in acetone, which were then mixed with nine volumes of water containing 110 ppm Triton X-100. The fungicide solutions were applied onto wheat seedlings using an automated booth sprayer to run-off. All sprayed plants were allowed to air dry prior to further handling. All fungicides were evaluated using the aforementioned method for their activity vs. all target diseases, unless stated otherwise. Wheat leaf blotch and brown rust activity were also evaluated using track spray applications, in which case the fungicides were formulated as EC formulations, containing 0.1% Trycol 5941 in the spray solutions. Wheat plants (variety Yuma) were grown from seed in a greenhouse in 50% mineral soil/50% soil-less Metro mix until the first leaf was fully emerged, with 7-10 seedlings per pot. These plants were inoculated with an aqueous spore suspension of Puccinia triticina either prior to or after fungicide treatments. After inoculation the plants were kept in a dark dew room at 22° C. with 100% relative humidity overnight to permit spores to germinate and infect the leaf. The plants were then transferred to a greenhouse set at 24° C. for disease to develop. Fungicide formulation, application and disease assessment followed the procedures as described in the Example A.

The mark [3] stands for this setting: 24 h, 1 Day Protectant, read-out: SEPTTR disease control, 1DP, HV activity.
Setting [4] is: 72 h, 3 Day Curative, read-out: SEPTTR disease control, 3DC, HV activity.
The mark [5] stands for this setting: 24 h, 1 Day Protectant, read-out: PUCCRT disease control, 1DP, HV activity.
Where [6] appears, read: 72 h, 3 Day Curative, read-out: PUCCRT disease control, 3DC, HV activity.
The mark [7] stands for this setting: 24 h, 1 Day Protectant, read-out: SEPTTR disease control, 1DP, LV activity.
[8] abbreviates: 72 h, 3 Day Curative, read-out: SEPTTR disease control, 3DC, LV activity.
[9] abbreviates: 24 h, 1 Day Protectant, read-out: PUCCRT disease control, 1DP, LV activity.
[10] abbreviates: 72 h, 3 Day Curative, read-out: PUCCRT disease control, 3DC, LV activity.
The mark [11] stands for this setting: 24 h, 1 Day Protectant, wheat leaf blotch, read-out: SEPTTR 1DP disease control, LV activity.
The mark [12] stands for this setting: 72 h, 3 Day Curative, wheat leaf blotch, read-out: SEPTTR 3DC disease control, LV activity.
Where [13] appears, read: 24 h, 1 Day Protectant, wheat brown rust, read-out: PUCCRT 1DP disease control, LV activity.
Setting [14] is: 72 h, 3 Day Curative, wheat brown rust, read-out: PUCCRT 3DC disease control, LV activity.

SMILES strings stand for the structures. Like-named read-outs stand apart in the source and are kept apart here. Some results are limits rather than exact numbers.

For the compound `COc1ccnc(C(=O)N[C@@H](C)C(=O)O[C@@H](C)[C@H](c2c(F)cccc2Cl)C(C)C)c1O` [Compound 343], the pest or weed control at 100 ppm in experiment [1] (setting [3]), in experiment [1] (setting [4]), in experiment [2] (setting [5]) and in experiment [2] (setting [6]) was greater than 80% throughout.
With `COc1ccnc(C(=O)N[C@@H](C)C(=O)OC(C)[C@H](c2ccccc2)C2CCCC2)c1OC(C)=O` (stereo partly shown) [Compound 173], the pest or weed control at 121.5 g/ha in experiment [1] (setting [7]) was greater than 80%; in experiment [1] (setting [8]), greater than 80%; in experiment [2] (setting [9]), greater than 80%; in experiment [2] (setting [10]) it was less than 80%.
With `COc1ccnc(C(=O)N[C@@H](C)C(=O)O[C@@H](C)[C@@H](c2ccccc2)C(C)C)c1O` [Compound 105], the pest or weed control at 100 ppm in experiment [1] (setting [3]) is less than 80%; in experiment [1] (setting [4]), less than 80%; in experiment [2] (setting [5]), greater than 80%; in experiment [2] (setting [6]), less than 0%.
Turning to `COc1ccnc(C(=O)N[C@@H](C)C(=O)OC(C)[C@H](c2ccccc2)C2CCCC2)c1O` (stereo partly shown) [Compound 113], the pest or weed control at 100 ppm in experiment [1] (setting [3]), in experiment [1] (setting [4]), in experiment [2] (setting [5]) and in experiment [2] (setting [6]) was greater than 80% each time.
For `COCCC(=O)Oc1c(OC)ccnc1C(=O)N[C@@H](C)C(=O)O[C@@H](C)[C@H](c1ccc(OC)cc1F)C(C)C` [Compound 247], the pest or weed control at 121.5 g/ha in experiment [1] (setting [7]) was less than 80%; in experiment [2] (setting [9]) it was greater than 80%; in experiment [2] (setting [10]), greater than 80%.
Regarding `COc1ccnc(C(=O)N[C@@H](C)C(=O)O[C@@H](C)[C@H](c2ccc(F)cc2C)C(C)C)c1O` [Compound 124], the pest or weed control at 100 ppm in experiment [1] (setting [3]), in experiment [1] (setting [4]), in experiment [2] (setting [5]) and in experiment [2] (setting [6]) was greater than 80% in each case.
As for `CCC(CC)[C@@H](c1ccccc1C)[C@H](C)OC(=O)[C@H](C)NC(=O)c1nccc(OC)c1OC(=O)C(C)C` [Compound 387], the pest or weed control at 121.5 g/ha in experiment [1] (setting [11]) is less than 80%; in experiment [1] (setting [12]), greater than 80%; in experiment [2] (setting [13]), greater than 80%; in experiment [2] (setting [14]), less than 80%.
For `COc1ccnc(C(=O)N[C@@H](C)C(=O)O[C@@H](C)[C@H](c2ccc(C)cc2)C2CC2)c1OC(C)=O` [Compound 166], the pest or weed control at 121.5 g/ha in experiment [1] (setting [7]) is less than 80%; in experiment [1] (setting [8]), greater than 80%; in experiment [2] (setting [9]) it was greater than 80%; in experiment [2] (setting [10]), greater than 80%.
Turning to `COc1ccnc(C(=O)N[C@@H](C)C(=O)O[C@@H](C)[C@H](c2ccc(C)cc2)C2CC2)c1OCOC(C)=O` [Compound 167], the pest or weed control at 121.5 g/ha in experiment [1] (setting [7]), in experiment [1] (setting [8]), in experiment [2] (setting [9]) and in experiment [2] (setting [10]) was greater than 80% in each case.
In the case of `COc1ccc([C@H](C(C)C)[C@H](C)OC(=O)[C@H](C)NC(=O)c2nccc(OC)c2OCOC(C)=O)cc1F` [Compound 258], the pest or weed control at 121.5 g/ha in experiment [1] (setting [7]) was less than 80%; in experiment [2] (setting [9]), greater than 80%; in experiment [2] (setting [10]), less than 80%.
On to `COc1ccnc(C(=O)N[C@@H](C)C(=O)O[C@@H](C)[C@H](c2cccc(F)c2C)C(C)C)c1O` [Compound 322], for which the pest or weed control at 100 ppm is less than 80% in experiment [1] (setting [3]), less than 80% in experiment [1] (setting [4]), greater than 80% in experiment [2] (setting [5]) and greater than 80% in experiment [2] (setting [6]).
As to `COc1ccnc(C(=O)N[C@@H](C)C(=O)O[C@@H](C)[C@H](c2ccccc2C)C(C)C)c1O` [Compound 327], the pest or weed control at 100 ppm in experiment [1] (setting [3]) was less than 80%; in experiment [1] (setting [4]), greater than 80%; in experiment [2] (setting [5]) it was greater than 80%; in experiment [2] (setting [6]), greater than 80%.
In the case of `COc1ccnc(C(=O)N[C@@H](C)C(=O)O[C@@H](C)[C@H](c2ccc(OC(C)C)cc2)C(C)C)c1O` [Compound 336], the pest or weed control at 100 ppm in experiment [1] (setting [3]) is less than 80%; in experiment [1] (setting [4]), less than 80%; in experiment [2] (setting [5]), greater than 80%; in experiment [2] (setting [6]), less than 80%.
On to `COc1ccnc(C(=O)N[C@@H](C)C(=O)O[C@@H](C)[C@H](c2ccc(F)cc2)C2CC2)c1OC(C)=O` [Compound 170], for which the pest or weed control at 121.5 g/ha in experiment [1] (setting [7]), in experiment [1] (setting [8]), in experiment [2] (setting [9]) and in experiment [2] (setting [10]) was greater than 80% each time.
In the case of `COc1ccnc(C(=O)N[C@@H](C)C(=O)O[C@@H](C)[C@H](c2ccccc2)C(C)C)c1OC(C)=O` [Compound 165], the pest or weed control at 121.5 g/ha in experiment [1] (setting [7]), in experiment [1] (setting [8]), in experiment [2] (setting [9]) and in experiment [2] (setting [10]) was greater than 80% in each case.
As to `COc1ccnc(C(=O)N[C@@H](C)C(=O)OC(C)[C@H](c2ccccc2)C2CCCC2)c1OCOC(C)=O` (stereo partly shown) [Compound 175], the pest or weed control at 121.5 g/ha in experiment [1] (setting [7]), in experiment [1] (setting [8]), in experiment [2] (setting [9]) and in experiment [2] (setting [10]) was greater than 80% in each case.
For `COc1ccnc(C(=O)N[C@@H](C)C(=O)O[C@@H](C)[C@H](c2ccc(F)c(C)c2)C(C)C)c1OCOC(C)=O` [Compound 256], the pest or weed control at 121.5 g/ha in experiment [1] (setting [7]), in experiment [2] (setting [9]) and in experiment [2] (setting [10]) was greater than 80% in each case.
Consider `COc1ccnc(C(=O)N[C@@H](C)C(=O)OC(C)C(c2ccc(F)cc2)C(C)C)c1OC(C)=O` (stereo partly shown) [Compound 169], for which the pest or weed control at 121.5 g/ha in experiment [1] (setting [7]) was less than 80%; in experiment [1] (setting [8]), greater than 80%; in experiment [2] (setting [9]), greater than 80%; in experiment [2] (setting [10]) it was greater than 80%.
Take `COc1ccnc(C(=O)N[C@@H](C)C(=O)O[C@@H](C)[C@H](c2ccc(Cl)cc2F)C(C)C)c1OC(C)=O` [Compound 389]: the pest or weed control at 121.5 g/ha in experiment [1] (setting [11]), in experiment [1] (setting [12]), in experiment [2] (setting [13]) and in experiment [2] (setting [14]) was greater than 80% throughout.
`COc1ccc([C@H](C(C)C)[C@H](C)OC(=O)[C@H](C)NC(=O)c2nccc(OC)c2OC(C)=O)c(C)c1` [Compound 254]: the pest or weed control at 121.5 g/ha in experiment [1] (setting [7]), in experiment [2] (setting [9]) and in experiment [2] (setting [10]) was greater than 80% each time.
Regarding `COc1ccnc(C(=O)N[C@@H](C)C(=O)O[C@@H](C)[C@@H](c2ccccc2)C2CCCC2)c1OCOC(C)=O` [Compound 163], the pest or weed control at 121.5 g/ha was less than 80% in experiment [1] (setting [7]), greater than 80% in experiment [1] (setting [8]), greater than 80% in experiment [2] (setting [9]) and less than 80% in experiment [2] (setting [10]).
Take `COc1ccnc(C(=O)NCC(=O)O[C@@H](C)[C@H](c2ccc(F)cc2C)C(C)C)c1O` [Compound 317]: the pest or weed control at 100 ppm in experiment [1] (setting [3]) is less than 80%; in experiment [1] (setting [4]) it was less than 80%; in experiment [2] (setting [5]), greater than 80%; in experiment [2] (setting [6]), greater than 80%.
In the case of `COc1ccnc(C(=O)N[C@@H](C)C(=O)O[C@@H](C)[C@H](c2cccc(C)c2C)C(C)C)c1O` [Compound 326], the pest or weed control at 100 ppm in experiment [1] (setting [3]) is less than 80%; in experiment [1] (setting [4]), greater than 80%; in experiment [2] (setting [5]) it was greater than 80%; in experiment [2] (setting [6]) it was greater than 80%.
